One experiment has as its target T1, histamine H1 receptor (Rattus norvegicus, UniProt P31390).
T1 construct: The tissue source was male Sprague-Dawley rat brain; tissue Rockland Corporation, Gilbertsville, Pa; host or cells: male Sprague-Dawley rat brain membranes
Nature of the experiment: H1-Receptor Binding Assay ([3H]pyrilamine, rat brain membranes). The conditions noted are these: for inhibition at 1 µg/mL: HCl salt; for Ki: Cheng-Prusoff from IC50, HCl salt. The source says:
General Procedure for H1-Receptor Binding Assay
The procedure used was based on that disclosed in V. T. Tran et al, “Histamine H1 receptors identified in mammalian brain membranes with [H-3]mepyramine”, Proc. Natl. Acad. Sci. U.S.A. 75 (1978) 6290-6294.
I. Tissue preparation protocol for histamine H1 receptor binding assay:
1. The tissue source was male Sprague-Dawley rat brain. These were purchased stripped and frozen (available from Rockland Corporation, Gilbertsville, Pa.). The buffer used was ice-cold 50 mM Tris-HCl, pH 7.5. (The pH was determined at 25° C.)
2. The brains were spread out on plastic wrap on the benchtop and allowed to thaw for 10-15 min. After this, everything was kept ice-cold.
3. Two brains were put in each 50 ml round bottom centrifuge tube and 25 ml of buffer was added. Then they were broken up with a Polytron (from Brinkmann Instruments, Westbury, N.Y.) equipped with a PT-10 tip at setting 6 for 30 sec.
4. The volume in the tube was brought up to 45 ml and mixed and the particulate material was centrifuged at 1000×g (3000 rpm, SS-34 rotor) for 10 min to remove nuclei and unbroken cells.
5. Pellets were discarded and the supernatants were centrifuged 10 min at 50,000×g (20,000 rpm, SS-34 rotor).
6. The high-speed pellets were resuspended in a volume of Tris buffer equal to the original ([…]), the contents of all tubes were pooled, and a sample was taken for BCA protein assay. The material was aliquotted, 45 ml per round-bottom tube, and the resuspension was recentrifuged. The yield of protein was approximately 20 mg/brain, so there was about 40 mg of protein per tube.
7. Pellets were frozen at −80° C.
II. H1 Histamine receptor binding assay:
1. The compounds for assay were independently solubilized at 1 mg/ml DMSO by vortexing, or if necessary by sonication. The first dilution, 100-fold, was made in 50 mM Tris-HCl, pH 7.5, at room temperature. The three or four subsequent ten-fold serial dilutions were made in 1% DMSO/50 mM Tris-HCl, pH 7.5. Drug solutions and assay plates were kept at room temperature during the course of the assay set up.
2. Test compounds were assayed at four or five concentrations: 1, 0.1, 0.01, 0.001, and 0.0001 μg/ml. Twenty μl of drug solution was pipeted into each of three wells.
3. [^3H]Pyrilamine was diluted approximately 2000-fold with ice-cold […] Tris-HCl, pH 7.5 (to a working concentration of 20-25 nM), and put on ice.
4. A frozen tissue pellet was thawed in a 25° C. water bath, resuspended in 50 mM Tris-HCl, pH 7.5, at 1.7-2 mg/ml by brief break-up on the Polytron, and put on ice.
5. Twenty μl of diluted [^3H]pyrilamine was added to each well.
6. One hundred fifty μl of tissue suspension was added to each well.
7. The top of the plate was covered and it was placed in a 25° C. shaking water bath (about 60 oscillations/min) for 30 min.
8. Samples were filtered on a Tomtec Mach 2 harvester (available from Tomtec Corporation, Orange, Conn.) through a GF/B filter mat (from Wallac, Inc., Gaithersburg, Md.) presoaked in 0.3% polyethylenimine. Each sample was thrice washed with ice-cold 50 mM Tris-HCl, pH 7.5 dried 20 sec on the Tomtec, and dried 3-4 min in a microwave oven on a paper towel. The filter was impregnated with MELTILEX brand wax scintillant (from Wallac Corporation) and counted on a Betaplate scintillation counter (from Wallac Corporation).
9. Specific binding was determined as the difference between total and nonspecific binding. The percent inhibition in the presence of inhibitor or standard was determined using the formula:
[1-(sample binding-nonspecific binding)/specific binding]×100
For compounds that inhibit more than 50% at 1 μg/ml, an IC50 value was interpolated from proximate concentrations. […]

In a further experiment the target is T2, H3 receptors (Cavia porcellus, UniProt Q9JI35).
T2 construct: The source of the H3 receptors in this experiment was guinea pig brain; from tissue; host or cells: guinea pig brain membranes
T2 sequence (Q9JI35 whole entry): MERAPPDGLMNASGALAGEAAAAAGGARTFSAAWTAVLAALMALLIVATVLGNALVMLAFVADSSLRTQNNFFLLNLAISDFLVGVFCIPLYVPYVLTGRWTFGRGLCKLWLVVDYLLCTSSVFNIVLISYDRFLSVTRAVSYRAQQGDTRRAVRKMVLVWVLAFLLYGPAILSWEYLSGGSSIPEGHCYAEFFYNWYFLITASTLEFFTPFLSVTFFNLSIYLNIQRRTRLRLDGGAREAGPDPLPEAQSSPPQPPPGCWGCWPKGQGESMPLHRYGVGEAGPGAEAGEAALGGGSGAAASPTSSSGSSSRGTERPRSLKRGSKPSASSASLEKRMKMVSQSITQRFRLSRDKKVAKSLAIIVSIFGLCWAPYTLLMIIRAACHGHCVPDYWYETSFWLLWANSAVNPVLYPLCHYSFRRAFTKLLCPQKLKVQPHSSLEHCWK
Nature of the experiment: H3-Receptor Binding Assay ([3H]R-α-methyl histamine or [3H]Nα-methyl histamine, guinea pig brain membranes). The conditions noted are these: for Ki: HCl salt of the indicated compounds; for inhibition at 2 µg/mL: final concentration 2 μg/ml, HCl salt. The method, then:
General Procedure for H3-Receptor Binding Assay
The source of the H3 receptors in this experiment was guinea pig brain. The animals weighed 400-600 g. The brain tissue was homogenized with a solution of 50 mM Tris, pH 7.5. The final concentration of tissue in the homogenization buffer was 10% w/v. The homogenates were centrifuged at 1,000×g for 10 min. in order to remove clumps of tissue and debris. The resulting supernatants were then centrifuged at 50,000×g for 20 min. in order to sediment the membranes, which were next washed three times in homogenization buffer (50,000×g for 20 min. each). The membranes were frozen and stored at −70° C. until needed.
All compounds to be tested were dissolved in DMSO and then diluted into the binding buffer (50 mM Tris, pH 7.5) such that the final concentration was 2 μg/ml with 0.1% DMSO. Membranes were then added (400 μg of protein) to the reaction tubes. The reaction was started by the addition of 3 nM [^3H]R-α-methyl histamine (8.8 Ci/mmol) or 3 nM [^3H]N^α-methyl histamine (80 Ci/mmol) and continued under incubation at 30° C. for 30 min. Bound ligand was separated from unbound ligand by filtration, and the amount of radioactive ligand bound to the membranes was quantitated by liquid scintillation spectrometry. All incubations were performed in duplicate and the standard error was always less than 10%. Compounds that inhibited more than 70% of the specific binding of radioactive ligand to the receptor were serially diluted to determine a Ki (nM). The results are given in Table 1 for the HCl salt of the indicated compounds.

T1 sequence (P31390 whole entry): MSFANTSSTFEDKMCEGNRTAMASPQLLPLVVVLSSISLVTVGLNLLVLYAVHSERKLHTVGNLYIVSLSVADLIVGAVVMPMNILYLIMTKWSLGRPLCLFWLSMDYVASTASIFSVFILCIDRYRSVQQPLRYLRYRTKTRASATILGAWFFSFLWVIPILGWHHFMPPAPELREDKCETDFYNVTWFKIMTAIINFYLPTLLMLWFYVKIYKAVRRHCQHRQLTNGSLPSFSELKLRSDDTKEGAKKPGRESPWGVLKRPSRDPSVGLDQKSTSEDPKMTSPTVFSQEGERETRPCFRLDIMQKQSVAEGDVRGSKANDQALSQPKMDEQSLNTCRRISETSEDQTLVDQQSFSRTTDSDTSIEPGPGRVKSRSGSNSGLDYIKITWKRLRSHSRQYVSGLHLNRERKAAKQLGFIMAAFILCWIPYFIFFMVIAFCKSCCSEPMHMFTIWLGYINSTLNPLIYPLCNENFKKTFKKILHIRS

Consider `O=C(C(c1ccc(Cl)cc1)c1ccc(Cl)cc1)N1CCC(CCc2c[nH]cn2)C1` (stereo not shown), for which the inhibition (commonly the relative decrease from the control value, in per cent) at 1 µg/mL on histamine H1 receptor is 2%. Also, the Ki (usually a measure of affinity in units of concentration, obtained from inhibition or displacement) at H3 receptors was found to be 0.0095 µM. As to `c1ccc(C(CCN2CCN(Cc3c[nH]cn3)CC2)c2ccccc2)cc1`, the Ki on histamine H1 receptor stood at 0.08 µM. In addition, the inhibition at 2 µg/mL at H3 receptors was determined as 62%. For the compound `Clc1ccc(C(CCN2CCN(Cc3c[nH]cn3)CC2)c2ccccn2)cc1` (stereo not shown), the Ki at histamine H1 receptor turned out to be 0.025 µM; on H3 receptors, 0.13 µM. Turning to `Clc1ccc(C(=C2CCN(CCCCCc3c[nH]cn3)CC2)c2ccccn2)cc1`, the Ki at histamine H1 receptor turned out to be 0.0045 µM; on H3 receptors, 0.008 µM.

As for `c1ccc(C(c2ccccc2)C2CCN(CCCCCc3c[nH]cn3)CC2)cc1`, the Ki on histamine H1 receptor came out at 0.028 µM; on H3 receptors, 0.019 µM. For `O=C(CC(c1ccc(Cl)cc1)c1ccccn1)N1CCC(Cc2c[nH]cn2)CC1` (stereo not shown), the Ki on histamine H1 receptor turned out to be 0.019 µM; at H3 receptors, 0.0003 µM.

Consider `Clc1ccc(C(=C2CCN(CCCCCCc3c[nH]cn3)CC2)c2ccccn2)cc1`, for which the Ki on histamine H1 receptor came to 0.003 µM; at H3 receptors, 0.011 µM. For `Clc1ccc(C(CCN2CCN(CCCCc3c[nH]cn3)CC2)c2ccccn2)cc1` (stereo not shown), in that order: 0.021 µM and 0.007 µM. Turning to `O=C(CC(c1ccc(Cl)cc1)c1ccccn1)N1CCN(CCCCc2c[nH]cn2)CC1` (stereo not shown), at histamine H1 receptor, the inhibition at 1 µg/mL amounted to 14%. Also, on H3 receptors, the Ki is 0.032 µM. For `Clc1ccc(C(c2ccccn2)N2CCN(CCCCc3c[nH]cn3)CC2)cc1` (stereo not shown), the Ki at histamine H1 receptor came out at 0.005 µM; at H3 receptors, 0.039 µM. As to `O=C(CC(c1ccccc1)c1ccccc1)N1CCN(Cc2c[nH]cn2)CC1`, on H3 receptors, the inhibition at 2 µg/mL turned out to be 15%. For the compound `Clc1ccc(C(c2ccccn2)N2CCN(Cc3c[nH]cn3)CC2)cc1` (stereo not shown), the Ki at histamine H1 receptor turned out to be 0.005 µM; on H3 receptors, 0.073 µM. With `Clc1ccc(C(c2ccccn2)N2CCN(CCCc3c[nH]cn3)CC2)cc1` (stereo not shown), the Ki on histamine H1 receptor stood at 0.04 µM; at H3 receptors, 0.066 µM. For `O=C(COCCN1CCN(C(c2ccccc2)c2ccc(Cl)cc2)CC1)NCCCCc1c[nH]cn1` (stereo not shown), in that order: 0.011 µM and 0.039 µM. Take `Clc1ccc(C(c2ccccc2)N2CCN(Cc3c[nH]cn3)CC2)cc1` (stereo not shown): the Ki came out at 0.0017 µM at histamine H1 receptor and 0.101 µM on H3 receptors. Regarding `Clc1ccc(C(=C2CCN(CCCCc3c[nH]cn3)CC2)c2ccccn2)cc1`, the Ki stood at 0.0045 µM on histamine H1 receptor and 0.003 µM on H3 receptors.

In the case of `Clc1ccc(C(CN2CCC(CCc3c[nH]cn3)C2)c2ccc(Cl)cc2)cc1` (stereo not shown), the inhibition at 1 µg/mL at histamine H1 receptor came out at 18%. The Ki on H3 receptors was found to be 0.025 µM.

Consider `Clc1ccc(C(c2ccccn2)N2CCN(CCCCCCCNCCCCc3c[nH]cn3)CC2)cc1` (stereo not shown), for which the Ki was found to be 0.0185 µM on histamine H1 receptor and 0.021 µM at H3 receptors. Regarding `O=C(C(c1ccccc1)c1ccccc1)N1CCC(Cc2c[nH]cn2)CC1`, the Ki on histamine H1 receptor stood at 0.05 µM; on H3 receptors it was 0.066 µM.

For the origin of these results see patent US6762186B2, “Substituted imidazoles as dual histamine H1 and H3 agonists or antagonists” (Schering Corporation, priority 2000, dated 2004).
